The text below walks through data of patent publication US6211214A, “Biphenyl ether oxazolines and their use as pest-control agents” (Bayer Aktiengesellschaft, priority 1995, dated 2001).

Like-named read-outs stand apart in the source and are kept apart here.

In series [1] the test system is caterpillars of the owlet moth (Spodoptera frugiperda). The series can be described thus: Spodoptera frugiperda test (cabbage leaves dipped). It counts as in vivo. Conditions: after 7 days, 0.1% active compound; for mortality at 0.1 % strength: Spodoptera frugiperda, 168 h, read-out: destruction. How it is done:
Spodoptera Frugiperda-Test Solvent: 7 parts by weight of dimethylformamide Emulsifier: 1 part by weight of alkylaryl polyglycol ether To produce a suitable preparation of active compound, 1 part by weight of active compound is mixed with the stated amount of solvent and the stated amount of emulsifier, and the concentrate is diluted with water to the desired concentration. Cabbage leaves (Brassica oleracea) are treated by being dipped into the preparation of active compound of the desired concentration and are infested with caterpillars of the owlet moth (Spodoptera frugiperda), as long as the leaves are still moist.

Series [2] concerns mustard beetle larvae (Phaedon cochleariae). The experiment in a line: Phaedon larvae test (cabbage leaves dipped). It counts as in vivo. Particulars: after 7 days, 0.01% active compound; for mortality at 0.01 % strength: Phaedon cochleariae, 168 h, read-out: destruction. How it is done: Phaedon Larvae Test Solvent: 7 parts by weight of dimethylformamide Emulsifier: 1 part by weight of alkylaryl polyglycol ether To produce a suitable preparation of active compound, 1 part by weight of active compound is mixed with the stated amount of solvent and the stated amount of emulsifier, and the concentrate is diluted with water to the desired concentration. Cabbage leaves (Brassica oleracea) are treated by being dipped into the preparation of the active compound of the desired concentration and are infested with mustard beetle larvae (Phaedon cochleariae), as long as the leaves are still moist.

The subject of series [3] is two-spotted spider mite (Tetranychus urticae). The experiment in a line: Tetranychus test (OP-resistant/dipping treatment). Type of series: in vivo. Conditions: 312 h, read-out: destruction. The procedure:
Tetranychus Test (OP-resistant/dipping treatment)
(§1) Solvent: 7 parts by weight of dimethylformamide
(§2) Emulsifier: 1 part by weight of alkylaryl polyglycol ether
To produce a suitable preparation of active compound, 1 part by weight of active compound is mixed with the stated amount of solvent and the stated amount of emulsifier, and the concentrate is diluted with emulsifier-containing water to the desired concentrations.
Bean plants (Phaseolus vulgaris) which are heavily infested with all stages of the two-spotted spider mite (Tetranychus urticae) are treated by being dipped into a preparation of the active compound of the desired concentration.
After the desired time, the effect in % is determined. 100% means that all the spider mites have been killed; 0% means that none of the spider mites have been killed.

Series [4] is described as follows: log p (partition coefficient octanol/water, determined experimentally from reversed phase HPLC). It counts as physicochemical. Particulars: reversed phase hplc. The text has this: [log p=logarithm of the partition coefficient p of the substance between the solvents octanol and water, determined experimentally from reversed phase HPLC]
The subject of series [5] is caterpillars of the diamond-back moth (Plutella maculipennis). The experiment in a line: Plutella test (cabbage leaves dipped). Conditions: 168 h, after 7 days, 0.0001% active compound, read-out: destruction. Type of series: in vivo. The procedure:
as §1, §2
To produce a suitable preparation of active compound, 1 part by weight of active compound is mixed with the stated amount of solvent and the stated amount of emulsifier, and the concentrate is diluted with water to the desired concentration.
Cabbage leaves (Brassica oleracea) are treated by being dipped into the preparation of active compound of the desired concentration and are infested with caterpillars of the diamond-back moth (Plutella maculipennis) while the leaves are still moist.
After the desired time, the destruction in % is determined. 100% means that all the caterpillars have been killed; 0% means that none of the caterpillars have been killed.

The subject of series [6] is green peach aphid (Myzus persicae). The experiment in a line: Myzus test (infested broad bean seedlings dipped). It counts as in vivo. Particulars: 144 h, after 6 days, 0.01% active compound, read-out: destruction. The procedure:
as §1, §2
To produce a suitable preparation of active compound, 1 part by weight of active compound is mixed with the stated amount of solvent and the stated amount of emulsifier and the concentrate is diluted with water to the desired concentration.
Seedlings of broad beans (Vicia faba) infested by the green peach aphid (Myzus persicae) are dipped into the preparation of active compound of the desired concentration and placed in a plastic container.
After the desired time, the destruction in % is determined. 100% means that all the aphids have been killed; 0% means that none of the aphids has been killed.

For the compound `O=C(COc1ccc(-c2ccc(C3COC(c4c(F)cccc4F)=N3)cc2)cc1)c1ccccc1` (stereo not drawn) [Example 1, 2-(2,6-difluorophenyl)-4-(4'-benzoylmethoxy-biphenyl-4-yl)-1,3-oxazoline], in series [1], the mortality at 0.1 % strength is 100%. Moreover, the mortality at 0.01 % strength in series [2] worked out at 100%. Also, the mortality at 0.001 % strength in series [3] was determined as 98%.
For `CCOC(CCOc1ccc(-c2ccc(C3COC(c4c(F)cccc4F)=N3)cc2)cc1)OCC` (stereo not drawn) [Example 16], the mortality at 0.1 % strength in series [1] was 100%. Moreover, the mortality at 0.01 % strength in series [2] was determined as 100%. Also, the chromatographic logP (in general, a lipophilicity value derived from retention on a column) in series [4] turned out to be 4.74.
In the case of `CC(C#N)Oc1ccc(-c2ccc(C3COC(c4c(F)cccc4F)=N3)cc2)cc1` (stereo not drawn) [Example 4, 2-(2,6-difluorophenyl)-4-[4'-(2-propionitriloxy)-biphenyl-4-yl]-1,3-oxazoline], the mortality at 0.1 % strength in series [1] was 100%. In series [2], the mortality at 0.01 % strength is 100%. Further, in series [5], the mortality at 0.0001 % strength came to 100%.
As for `CON=C(C)COc1ccc(-c2ccc(C3COC(c4c(F)cccc4F)=N3)cc2)cc1` (stereo not drawn) [Example 13], in series [2], the mortality at 0.01 % strength is 100%.
As to `CCCC(C#N)Oc1ccc(-c2ccc(C3COC(c4c(F)cccc4F)=N3)cc2)cc1` (stereo not drawn) [Example 21], the mortality at 0.1 % strength in series [1] is 100%. Further, the mortality at 0.01 % strength in series [2] came out at 100%.
`CON=C(COc1ccc(-c2ccc(C3COC(c4c(F)cccc4F)=N3)cc2)cc1)c1ccccc1` (stereo not drawn) [Example 2]: in series [1], the mortality at 0.1 % strength worked out at 100%. The mortality at 0.01 % strength in series [2] stood at 100%. For the same compound, the mortality at 0.001 % strength in series [3] is 98%. Further, the mortality at 0.0001 % strength in series [5] was 100%. The compound also returned a chromatographic logP in series [4] of 5.01.
In the case of `CC(Oc1ccc(-c2ccc(C3COC(c4c(F)cccc4F)=N3)cc2)cc1)C1=NOCCO1` (stereo not drawn) [Example 20], the mortality at 0.1 % strength in series [1] amounted to 100%. Further, the mortality at 0.01 % strength in series [2] is 100%.
Consider `COC(=O)C(Oc1ccc(-c2ccc(C3COC(c4c(F)cccc4F)=N3)cc2)cc1)C(C)C` (stereo not drawn) [Example 18], for which the mortality at 0.1 % strength in series [1] was found to be 100%. The same compound yielded a chromatographic logP in series [4] of 4.56.
For the compound `COc1ccc(-c2ccc(C3COC(c4c(F)cccc4F)=N3)cc2)cc1` (stereo not drawn) [(A), reference compound], the destruction entry in series [1] and in series [2] was “no destruction” each time. In series [6], the mortality at 0.01 % strength was 5%. In addition, the mortality at 0.001 % strength in series [3] (after 13 days, 0.001% active compound) was found to be 45%. In addition, the mortality at 0.0001 % strength in series [5] amounted to 5%.
In the case of `N#CCCCOc1ccc(-c2ccc(C3COC(c4c(F)cccc4F)=N3)cc2)cc1` (stereo not drawn) [Example 14], the mortality at 0.1 % strength in series [1] came out at 100%. For the same compound, the mortality at 0.01 % strength in series [2] amounted to 100%.
Consider `CC(C)(C)OC(=O)COc1ccc(-c2ccc(C3COC(c4c(F)cccc4F)=N3)cc2)cc1` (stereo not drawn) [Example 10], for which the mortality at 0.1 % strength in series [1] was 100%. This compound returned a chromatographic logP in series [4] of 4.43.
